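Test compounds were applied to cells in 96-well plates for 48 hours at 5 doses. At the GI50, growth is halved. TGI: total growth inhibition.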
These compounds were tested on NCI-H23 lung (assay: NCI tumour cell line growth inhibition, 48 h).

Q: With COc1ccccc1NC(=O)c1ccc(/C=C/C(=O)c2nccn2C)cc1 as the compound, how does the GI50 read?
A: 0.561 µM

Q: And the TGI?
A: 1.5 µM

Q: Which GI50 does the source give for O=C1c2ccccc2C(=O)c2c1ccc1[nH]c(CCl)nc21 here?
A: 1.65 µM

Q: What about the TGI of the same compound?
A: 3.6 µM

Q: O=[n+]1c(CBr)c(CBr)n([O-])c2ccccc21 was tested. Which GI50 did it give?
A: 14.8 µM

Q: What about the TGI of the same compound?
A: 29.4 µM

Each compound was assayed on NCI-H460 lung (assay: NCI tumour cell line growth inhibition, 48 h).

Q: CC(C)CCNC(=O)c1ccc(CNC(=O)/C=C/c2ccc(OCc3ccccc3)cc2)cc1 was tested. Which TGI did it give?
A: > 100 µM

Q: Which results are given for COc1ccccc1NC(=O)c1ccc(/C=C/C(=O)c2nccn2C)cc1?
A: GI50: 0.572 µM; TGI: 1.52 µM

Q: For O=C1c2ccccc2C(=O)c2c1ccc1[nH]c(CCl)nc21, which GI50 is on record?
A: 3.97 µM

Q: And the TGI?
A: 15.1 µM

Q: Which results are given for O=[n+]1c(CBr)c(CBr)n([O-])c2ccccc21?
A: GI50: 16.9 µM; TGI: 34.6 µM

Each compound was assayed on NCI-H522 lung (assay: NCI tumour cell line growth inhibition, 48 h).

Q: For COc1ccccc1NC(=O)c1ccc(/C=C/C(=O)c2nccn2C)cc1, which GI50 is on record?
A: 0.584 µM

Q: What about the TGI of the same compound?
A: 1.52 µM

Q: Which GI50 does the source give for O=C1c2ccccc2C(=O)c2c1ccc1[nH]c(CCl)nc21 here?
A: 1.63 µM

Q: And the TGI?
A: 3.53 µM

Q: What does the source list for O=[n+]1c(CBr)c(CBr)n([O-])c2ccccc21?
A: GI50: 1.74 µM; TGI: 3.17 µM

Each compound was assayed on NCI/ADR-RES ovarian (assay: NCI tumour cell line growth inhibition, 48 h).

Q: How did the TGI turn out when CC(C)CCNC(=O)c1ccc(CNC(=O)/C=C/c2ccc(OCc3ccccc3)cc2)cc1 was run?
A: > 100 µM

Q: Which results are given for COc1ccccc1NC(=O)c1ccc(/C=C/C(=O)c2nccn2C)cc1?
A: GI50: 0.806 µM; TGI: 9.77 µM

Q: What does the source list for O=C1c2ccccc2C(=O)c2c1ccc1[nH]c(CCl)nc21?
A: GI50: 2.76 µM; TGI: 10.4 µM

Q: Which GI50 does the source give for O=[n+]1c(CBr)c(CBr)n([O-])c2ccccc21 here?
A: 14.5 µM

Q: And the TGI?
A: 33.7 µM

What follows are compounds tested on OVCAR-3 ovarian (assay: NCI tumour cell line growth inhibition, 48 h).

Q: How did the TGI turn out when CC(C)CCNC(=O)c1ccc(CNC(=O)/C=C/c2ccc(OCc3ccccc3)cc2)cc1 was run?
A: > 100 µM

Q: Which results are given for COc1ccccc1NC(=O)c1ccc(/C=C/C(=O)c2nccn2C)cc1?
A: GI50: 0.459 µM; TGI: 0.988 µM

Q: O=C1c2ccccc2C(=O)c2c1ccc1[nH]c(CCl)nc21 was tested. Which GI50 did it give?
A: 1.64 µM

Q: And the TGI?
A: 3.03 µM

Q: Which GI50 does the source give for O=[n+]1c(CBr)c(CBr)n([O-])c2ccccc21 here?
A: 1.79 µM

Q: What about the TGI of the same compound?
A: 3.25 µM

What follows are compounds tested on OVCAR-4 ovarian (assay: NCI tumour cell line growth inhibition, 48 h).

Q: With CC(C)CCNC(=O)c1ccc(CNC(=O)/C=C/c2ccc(OCc3ccccc3)cc2)cc1 as the compound, how does the TGI read?
A: > 100 µM

Q: What does the source list for COc1ccccc1NC(=O)c1ccc(/C=C/C(=O)c2nccn2C)cc1?
A: GI50: 0.74 µM; TGI: 5.67 µM

Q: With O=C1c2ccccc2C(=O)c2c1ccc1[nH]c(CCl)nc21 as the compound, how does the GI50 read?
A: 3.05 µM

Q: What about the TGI of the same compound?
A: 11.2 µM

Q: Which results are given for O=[n+]1c(CBr)c(CBr)n([O-])c2ccccc21?
A: GI50: 6.81 µM; TGI: 20.4 µM

What follows are compounds tested on OVCAR-5 ovarian (assay: NCI tumour cell line growth inhibition, 48 h).

Q: Which TGI does the source give for CC(C)CCNC(=O)c1ccc(CNC(=O)/C=C/c2ccc(OCc3ccccc3)cc2)cc1 here?
A: > 100 µM

Q: Which results are given for COc1ccccc1NC(=O)c1ccc(/C=C/C(=O)c2nccn2C)cc1?
A: GI50: 0.619 µM; TGI: 1.73 µM

Q: With O=C1c2ccccc2C(=O)c2c1ccc1[nH]c(CCl)nc21 as the compound, how does the GI50 read?
A: 10.2 µM

Q: And the TGI?
A: 24.5 µM

Q: O=[n+]1c(CBr)c(CBr)n([O-])c2ccccc21 was tested. Which GI50 did it give?
A: 14 µM

Q: What about the TGI of the same compound?
A: 27.1 µM

The compounds below were run on OVCAR-8 ovarian (assay: NCI tumour cell line growth inhibition, 48 h).

Q: How did the TGI turn out when CC(C)CCNC(=O)c1ccc(CNC(=O)/C=C/c2ccc(OCc3ccccc3)cc2)cc1 was run?
A: > 100 µM

Q: Which results are given for COc1ccccc1NC(=O)c1ccc(/C=C/C(=O)c2nccn2C)cc1?
A: GI50: 0.916 µM; TGI: 10.1 µM

Q: Which GI50 does the source give for O=C1c2ccccc2C(=O)c2c1ccc1[nH]c(CCl)nc21 here?
A: 3.68 µM

Q: And the TGI?
A: 15.7 µM

Q: Which GI50 does the source give for O=[n+]1c(CBr)c(CBr)n([O-])c2ccccc21 here?
A: 15.2 µM

Q: What about the TGI of the same compound?
A: 31 µM

These compounds were tested on PC-3 prostate (assay: NCI tumour cell line growth inhibition, 48 h).

Q: Which TGI does the source give for CC(C)CCNC(=O)c1ccc(CNC(=O)/C=C/c2ccc(OCc3ccccc3)cc2)cc1 here?
A: > 100 µM

Q: What does the source list for COc1ccccc1NC(=O)c1ccc(/C=C/C(=O)c2nccn2C)cc1?
A: GI50: 0.628 µM; TGI: 1.65 µM

Q: With O=C1c2ccccc2C(=O)c2c1ccc1[nH]c(CCl)nc21 as the compound, how does the GI50 read?
A: 2.23 µM

Q: What about the TGI of the same compound?
A: 7.01 µM

Q: What does the source list for O=[n+]1c(CBr)c(CBr)n([O-])c2ccccc21?
A: GI50: 13.4 µM; TGI: 31.1 µM

Each compound was assayed on RPMI-8226 leukemia (assay: NCI tumour cell line growth inhibition, 48 h).

Q: How did the TGI turn out when CC(C)CCNC(=O)c1ccc(CNC(=O)/C=C/c2ccc(OCc3ccccc3)cc2)cc1 was run?
A: > 100 µM

Q: What does the source list for COc1ccccc1NC(=O)c1ccc(/C=C/C(=O)c2nccn2C)cc1?
A: GI50: 0.429 µM; TGI: 1.46 µM

Q: For O=C1c2ccccc2C(=O)c2c1ccc1[nH]c(CCl)nc21, which GI50 is on record?
A: 1.83 µM

Q: And the TGI?
A: 5.87 µM

Q: How did the GI50 turn out when O=[n+]1c(CBr)c(CBr)n([O-])c2ccccc21 was run?
A: 2.73 µM

Q: What about the TGI of the same compound?
A: 8.39 µM

The compounds below were run on RXF 393 renal (assay: NCI tumour cell line growth inhibition, 48 h).

Q: With CC(C)CCNC(=O)c1ccc(CNC(=O)/C=C/c2ccc(OCc3ccccc3)cc2)cc1 as the compound, how does the TGI read?
A: > 100 µM

Q: For COc1ccccc1NC(=O)c1ccc(/C=C/C(=O)c2nccn2C)cc1, which GI50 is on record?
A: 0.42 µM

Q: And the TGI?
A: 0.857 µM

Q: Which results are given for O=C1c2ccccc2C(=O)c2c1ccc1[nH]c(CCl)nc21?
A: GI50: 1.86 µM; TGI: 6.17 µM

Q: With O=[n+]1c(CBr)c(CBr)n([O-])c2ccccc21 as the compound, how does the GI50 read?
A: 4.66 µM

Q: And the TGI?
A: 16.9 µM

These compounds were tested on SF-268 CNS (assay: NCI tumour cell line growth inhibition, 48 h).

Q: CC(C)CCNC(=O)c1ccc(CNC(=O)/C=C/c2ccc(OCc3ccccc3)cc2)cc1 was tested. Which TGI did it give?
A: > 100 µM

Q: COc1ccccc1NC(=O)c1ccc(/C=C/C(=O)c2nccn2C)cc1 was tested. Which GI50 did it give?
A: 0.631 µM

Q: What about the TGI of the same compound?
A: 1.97 µM

Q: How did the GI50 turn out when O=C1c2ccccc2C(=O)c2c1ccc1[nH]c(CCl)nc21 was run?
A: 2.22 µM

Q: And the TGI?
A: 8.1 µM

Q: O=[n+]1c(CBr)c(CBr)n([O-])c2ccccc21 was tested. Which GI50 did it give?
A: 15.9 µM

Q: And the TGI?
A: 33.6 µM

What follows are compounds tested on SF-295 CNS (assay: NCI tumour cell line growth inhibition, 48 h).

Q: How did the TGI turn out when CC(C)CCNC(=O)c1ccc(CNC(=O)/C=C/c2ccc(OCc3ccccc3)cc2)cc1 was run?
A: > 100 µM

Q: Which GI50 does the source give for COc1ccccc1NC(=O)c1ccc(/C=C/C(=O)c2nccn2C)cc1 here?
A: 0.658 µM

Q: What about the TGI of the same compound?
A: 1.76 µM

Q: With O=C1c2ccccc2C(=O)c2c1ccc1[nH]c(CCl)nc21 as the compound, how does the GI50 read?
A: 7.99 µM

Q: What about the TGI of the same compound?
A: 20.6 µM

Q: Which GI50 does the source give for O=[n+]1c(CBr)c(CBr)n([O-])c2ccccc21 here?
A: 17.2 µM

Q: What about the TGI of the same compound?
A: 36 µM

Each compound was assayed on SF-539 CNS (assay: NCI tumour cell line growth inhibition, 48 h).

Q: For COc1ccccc1NC(=O)c1ccc(/C=C/C(=O)c2nccn2C)cc1, which GI50 is on record?
A: 0.495 µM

Q: What about the TGI of the same compound?
A: 1.07 µM

Q: How did the GI50 turn out when O=C1c2ccccc2C(=O)c2c1ccc1[nH]c(CCl)nc21 was run?
A: 3.16 µM

Q: And the TGI?
A: 11.6 µM

Q: O=[n+]1c(CBr)c(CBr)n([O-])c2ccccc21 was tested. Which GI50 did it give?
A: 13.3 µM

Q: And the TGI?
A: 26.3 µM

These compounds were tested on SK-MEL-2 melanoma (assay: NCI tumour cell line growth inhibition, 48 h).

Q: For CC(C)CCNC(=O)c1ccc(CNC(=O)/C=C/c2ccc(OCc3ccccc3)cc2)cc1, which TGI is on record?
A: > 100 µM

Q: Which results are given for COc1ccccc1NC(=O)c1ccc(/C=C/C(=O)c2nccn2C)cc1?
A: GI50: 1.9 µM; TGI: 10.8 µM

Q: What does the source list for O=C1c2ccccc2C(=O)c2c1ccc1[nH]c(CCl)nc21?
A: GI50: 3.26 µM; TGI: 12.2 µM
